Assay [1] relates to A549 Human NSCLC Xenografts. In words: Influence of time interval between FMdC and CDDP, A549 human NSCLC xenografts, single dose. The following applies: single agent, single dose i.p.; FMdC 200 mg/kg, CDDP 6 mg/kg. The format is in vivo, nu/nu mice. An excerpt: (§1) This example evaluated the effect of FMdC in combination with cisplatin in two human non-small-cell lung cancer (NSCLC) xenograft models. This example examined the influence of the time interval between FMdC and cisplatin administration.
(§2) Xenogeneic NSCLC tumors of A549 cells or Calu-6 cells (available through ATCC, Rockville, Md.) were induced by intradermal injection of approximately 5×10^6 cells into the flanks of female nu/nu mice. Two to three weeks after tumor cell inoculation, when the tumors were approximately 10 mm^3 in size, treatment with FMdC and/or cisplatin solution was administered intraperitoneally (i.p.) in a volume of approximately 10 μL per gram of mouse body weight. Six to eight animals were used per treatment group.
(§3) The injectable solutions were prepared as follows: Lyophilized FMdC was reconstituted with sterile saline to a concentration of 2 or 20 mg/mL; […] with sterile saline to a concentration of 2 mg/mL; and cisplatin solution was prepared from lyophilized cisplatin (Cisplatin for Injection, David Bull Laboratories) by reconstitution with sterile water to a concentration of 0.4 or 0.6 mg/mL.
(§4) Tumor growth and animal body weight were determined twice weekly for up to 30 days. Tumor volume quadrupling time (TVQT) was used as the study endpoint. Tumor growth delay (TGD) is the difference between TVQTs of a treated group and untreated control.
For orientation: Xenograft models place foreign cells or tissue in a host animal.

In assay [2] the test system is Calu-6 Human NSCLC Xenografts. The assay is described as follows: Influence of time interval between FMdC and CDDP, Calu-6 human NSCLC xenografts, single dose. The format is in vivo, nu/nu mice. The following applies: single agent, single dose i.p.; FMdC 200 mg/kg, CDDP 6 mg/kg.
Source text: as §1, §2, §3, §4

Another assay relates to A549. In words: MTT cell growth inhibition assay, A549 lung carcinoma cells. The class given is cell-based, human. The following applies: 72 hours exposure. Here is the method: (§5) The antiproliferative activity of FMdC in combination with cisplatin on growth inhibition in human carcinoma cell lines in vitro was studied using the following method.
(§6) Two lung carcinoma cell lines, A549 and Calu-6, (available through ATCC, Rockville, Md.), were cultured in F12K medium with 10% fetal bovine serum at an atmosphere of 5% CO2 at 37° C. All cells were exposed to both FMdC and cisplatin in different concentrations for 72 hours.
(§7) Cell growth inhibition was determined by measuring the metabolic activity of cells using the MTT (tetrazolium salt) assay. For the MTT assays, the cells were seeded at 4×10^3 in 100 μL per well in a 96-well microtiter culture plate. The concentration of FMdC ranged from 10 nM to 100 μM and the concentration of cisplatin ranged from 1 μM to 10 mM. At the end of the treatment, tetrazolium salt (MTT) was added to each well and then solubilized. The microtiter plate was then measured (O.D. at 570 nm) using an ELISA plate reader. The 50% inhibitory concentrations (IC50) values of FMdC and cisplatin as single agents and in combination were determined.

The test system of the next assay is Calu-6. The assay is described as follows: MTT cell growth inhibition assay, Calu-6 lung carcinoma cells. The format is cell-based, human. The following applies: Calu-6 cells, 72 hours exposure. As to the method:
as §5, §6, §7

For assay [3], the system named is A549 Human NSCLC Xenografts. In words: Anti-tumor activity, A549 human NSCLC xenografts, multiple dose. The format is in vivo, nu/nu mice. The following applies: i.p.; for TVQT (days) (M ± SE), tumor volume quadrupling time: FMdC or gemcitabine 20 mg/kg Day 0, 3, 7, 10, CDDP 4 mg/kg Day 0, 7, FMdC 15 minutes prior to cisplatin; for TGD (days) (M ± SE), tumor growth delay: FMdC or gemcitabine 20 mg/kg Day 0, 3, 7, 10, CDDP 4 mg/kg Day 0, 7, difference of TVQT vs untreated control.
Source text: This example evaluated the effect of FMdC in combination with cisplatin in a human non-small-cell lung cancer (NSCLC) xenograft model. This combination was compared to the administration of the combination of gemcitabine with cisplatin. Gemcitabine (Gemzar®, Eli Lilly and Company) is 2′-deoxy-2′,2′-difluorocytidine (dFdC).
Xenogeneic NSCLC tumors of A549 cells (available through ATCC, Rockville, Md.) were induced by intradermal injection of approximately 5×10^6 cells into the flanks of female nu/nu mice. Two to three weeks after tumor cell inoculation, when the tumors were approximately 10 mm^3 in size, treatment with FMdC, gemcitabine or cisplatin solution was administered intraperitoneally (i.p.) in a volume of approximately 10 μL per gram of mouse body weight. Six to eight animals were used per treatment group.
The injectable solutions were prepared as follows: Lyophilized FMdC was reconstituted with sterile saline to a concentration of 2 or 20 mg/mL; gemcitabine was reconstituted with sterile saline to a concentration of 2 mg/mL; and cisplatin solution was prepared from lyophilized cisplatin (Cisplatin for Injection, David Bull Laboratories) by reconstitution with sterile water to a concentration of 0.4 or 0.6 mg/mL.
For this multiple treatment regimens, FMdC or gemcitabine was administered twice a week for two weeks at 20 mg/kg and cisplatin was administered once a week for two weeks at 4 mg/kg. FMdC was administered by injection 15 minutes prior to the administration of cisplatin.
as §4

The text below walks through data of patent publication US6544962B1, “Methods for treating cellular proliferative disorders” (Matrix Pharmaceutical, Inc., priority 2000, dated 2003).

As for `Nc1ccn([C@@H]2O[C@H](CO)[C@@H](O)/C2=C\F)c(=O)n1` [FMdC, (E)-2′-deoxy-2′-(fluoromethylene)cytidine], in assay [1], the “TGD (days) (M ± SE)” value is given as 3.6 ± 1.3 days and the “TVQT (days) (M ± SE)” value amounted to 17.8 ± 1.0 days. Also, in assay [2], the “TGD (days) (M ± SE)” value is 2.0 ± 0.6 days and the “TVQT (days) (M ± SE)” value is 11.3 ± 0.4 days. Besides, the “Cell growth inhibition / cell death (MTT assay)” value in the assay with A549 is “not effective”. In addition, the “Cell growth inhibition / cell death (MTT assay)” value in the assay on Calu-6 is listed as “not effective”. In assay [3], the “TVQT (days) (M ± SE), tumor volume quadrupling time” value was found to be 19.8 ± 1.1 days and the “TGD (days) (M ± SE), tumor growth delay” value is given as 3.0 ± 1.6 days.

Take `N.N.[Cl][Pt][Cl]` [CDDP, cis-diamminedichloroplatinum]: in assay [1], the “TGD (days) (M ± SE)” value was determined as 1.9 ± 2.0 days and the “TVQT (days) (M ± SE)” value is reported as 16.1 ± 1.8 days. Also, in assay [2], the “TGD (days) (M ± SE)” value was 8.8 ± 1.6 days and the “TVQT (days) (M ± SE)” value amounted to 18.1 ± 1.5 days. For the same compound, in the assay on A549, the “Cell growth inhibition / cell death (MTT assay)” value is “not effective”. In addition, the “Cell growth inhibition / cell death (MTT assay)” value in the assay on Calu-6 was “not effective”. For the same compound, in assay [3], the “TVQT (days) (M ± SE), tumor volume quadrupling time” value stood at 18.1 ± 0.9 days and the “TGD (days) (M ± SE), tumor growth delay” value is on record as 1.3 ± 1.5 days.

Take `Nc1ccn([C@@H]2O[C@H](CO)[C@@H](O)C2(F)F)c(=O)n1` [Gemcitabine, 2′-deoxy-2′,2′-difluorocytidine]: in assay [3], the “TVQT (days) (M ± SE), tumor volume quadrupling time” value came out at 18.7 ± 1.0 days and the “TGD (days) (M ± SE), tumor growth delay” value is recorded as 1.9 ± 1.6 days.
